US6737383B1, “Herbicidal oxadiazolidines” (priority 1999, dated 2004)

Legend:
velvetleaf = experiment: Test B pre/postemergence velvetleaf; assay type: in vivo, Abutilon theophrasti
In short: (§1)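 Test chemicals in a non-phytotoxic solvent mixture with surfactant were sprayed preemergence onto planted seeds and postemergence onto plants 2 to 18 cm tall (1- to 4-leaf stage). After twelve to sixteen days in a greenhouse, injury was visually rated against untreated controls from 0 (no effect) to 10 (complete control).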

pigweed = experiment: Test B pre/postemergence pigweed; assay type: in vivo, Amaranthus retroflexus
In short: as §1

duck salad = experiment: Test B flood test duck salad; assay type: in vivo, Heteranthera limosa
In short: (§2)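 Read-out is a visual response score from 0 (no effect) to 10 (complete control), assigned by comparison with untreated controls. Treatment was applied at the 2-leaf stage, and plants stayed in the greenhouse for twelve to sixteen days before scoring.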

blackgrass = experiment: Test B pre/postemergence blackgrass; assay type: in vivo, Alopecurus myosuroides
In short: as §1

sugar beet = experiment: Test B pre/postemergence sugar beet; assay type: in vivo, Beta vulgaris
In short: as §1

cocklebur = experiment: Test B pre/postemergence cocklebur; assay type: in vivo, Xanthium strumarium
In short: as §1

giant foxtail = experiment: Test B pre/postemergence giant foxtail; assay type: in vivo, Setaria faberii
In short: as §1

soybean = experiment: Test B pre/postemergence soybean; assay type: in vivo, Glycine max
In short: as §1

crabgrass = experiment: Test B pre/postemergence crabgrass; assay type: in vivo, Digitaria sanguinalis
In short: as §1

wild oat = experiment: Test B pre/postemergence wild oat; assay type: in vivo, Avena fatua
In short: as §1

rice = experiment: Test B flood test rice; assay type: in vivo, Oryza sativa
In short: as §2

surinam grass = experiment: Test B pre/postemergence surinam grass; assay type: in vivo, Brachiaria decumbens
In short: as §1

purple nutsedge = experiment: Test B pre/postemergence purple nutsedge; assay type: in vivo, Cyperus rotundus
In short: as §1

corn = experiment: Test B pre/postemergence corn; assay type: in vivo, Zea mays
In short: as §1

wheat = experiment: Test B pre/postemergence wheat; assay type: in vivo, Triticum aestivum
In short: as §1

bedstraw = experiment: Test B pre/postemergence bedstraw; assay type: in vivo, Galium aparine
In short: as §1

[1] = Preemergence, Rate 62 g/ha, scale of 0 to 10 where 0 is no effect and 10 is complete control
[2] = Preemergence, Rate 250 g/ha, scale 0 to 10, 0 is no effect, 10 is complete control
[3] = Preemergence, Rate 500 g/ha, scale 0 to 10 (0 no effect, 10 complete control)
[4] = Rate 62 g/ha, Postemergence, scale of 0 to 10 where 0 is no effect and 10 is complete control
[5] = Rate 125 g/ha, Postemergence, scale 0 to 10
[6] = Preemergence, Rate 125 g/ha, 0 is no effect, 10 is complete control
[7] = Rate 500 g/ha, Postemergence, scale 0 to 10
[8] = Rate 62 g/ha, headed Pre-emergence (flood test species), scale 0 to 10 (0 no effect, 10 complete control)
[9] = Rate 125 g/ha, Pre-emergence, flood test species, scale 0 to 10 where 0 is no effect and 10 is complete control
[10] = Rate 250 g/ha, Pre-emergence, flood-test species, scale 0 to 10, 0 is no effect, 10 is complete control
[11] = Rate 500 g/ha, headed Pre-emergence (flood test species), scale 0 to 10 (0 no effect, 10 complete control)

## CCN(Cc1ccncc1)C(=O)n1oc(=O)n(C(C)C)c1=O [Compound 189]
velvetleaf; [1]
  Velvetleaf plant response rating: 0
velvetleaf; [2]
  Velvetleaf plant response rating: 0
velvetleaf; [3]
  Velvetleaf plant response rating: 0
velvetleaf; [4]
  Velvetleaf plant response rating: 0
velvetleaf; [5]
  Velvetleaf plant response rating: 0
velvetleaf; Rate 250 g/ha, Postemergence
  Plant response rating (0 to 10; 0 is no effect, 10 is complete control), Velvetleaf: 0
pigweed; [1]
  Redroot pigweed plant response rating: 0
pigweed; [6]
  Redroot pigweed plant response rating (0 to 10 scale): 0
pigweed; [2]
  Redroot pigweed plant response rating: 0
pigweed; [3]
  Redroot pigweed plant response rating: 0
pigweed; [4]
  Redroot pigweed plant response rating: 0
pigweed; [5]
  Redroot pigweed plant response rating: 0
pigweed; Rate 250 g/ha, Postemergence
  Plant response rating (0 to 10; 0 is no effect, 10 is complete control), Redroot pigweed: 0
pigweed; [7]
  Redroot pigweed plant response rating: 0
Duck salad; [8]
  Ducksalad plant response rating: 0
Duck salad; [9]
  Ducksalad plant response rating: 0
Duck salad; [10]
  Ducksalad plant response rating: 0
Duck salad; [11]
  Plant response rating, Ducksalad: 0
blackgrass; [1]
  Blackgrass plant response rating: 1
blackgrass; [6]
  Blackgrass plant response rating (0 to 10 scale): 4
blackgrass; [2]
  Blackgrass plant response rating: 4
blackgrass; [3]
  Blackgrass plant response rating: 7
blackgrass; [4]
  Blackgrass plant response rating: 0
blackgrass; [5]
  Blackgrass plant response rating: 0
blackgrass; Rate 250 g/ha, Postemergence
  Plant response rating (0 to 10; 0 is no effect, 10 is complete control), Blackgrass: 0
blackgrass; [7]
  Blackgrass plant response rating: 0
Sugar beet; [1]
  Sugarbeets plant response rating: 0
Sugar beet; [6]
  Sugarbeets plant response rating (0 to 10 scale): 0
Sugar beet; [2]
  Sugarbeets plant response rating: 0
Sugar beet; [3]
  Sugarbeets plant response rating: 0
Sugar beet; [4]
  Sugarbeets plant response rating: 0
Sugar beet; [5]
  Sugarbeets plant response rating: 0
Sugar beet; Rate 250 g/ha, Postemergence
  Plant response rating (0 to 10; 0 is no effect, 10 is complete control), Sugarbeets: 0
Sugar beet; [7]
  Sugarbeets plant response rating: 0
cocklebur; [6]
  Cocklebur plant response rating (0 to 10 scale): 0
cocklebur; [2]
  Cocklebur plant response rating: 0
cocklebur; [3]
  Cocklebur plant response rating: 0
cocklebur; [4]
  Cocklebur plant response rating: 0
cocklebur; [5]
  Cocklebur plant response rating: 0
cocklebur; Rate 250 g/ha, Postemergence
  Plant response rating (0 to 10; 0 is no effect, 10 is complete control), Cocklebur: 0
cocklebur; [7]
  Cocklebur plant response rating: 0
Giant foxtail; [1]
  Giant foxtail plant response rating: 0
Giant foxtail; [6]
  Giant foxtail plant response rating (0 to 10 scale): 0
Giant foxtail; [2]
  Giant foxtail plant response rating: 3
Giant foxtail; [3]
  Giant foxtail plant response rating: 6
Giant foxtail; [4]
  Giant foxtail plant response rating: 0
Giant foxtail; [5]
  Giant foxtail plant response rating: 0
Giant foxtail; Rate 250 g/ha, Postemergence
  Plant response rating (0 to 10; 0 is no effect, 10 is complete control), Giant foxtail: 0
Giant foxtail; [7]
  Giant foxtail plant response rating: 0
soybean; [1]
  Soybean plant response rating: 0
soybean; [6]
  Soybean plant response rating (0 to 10 scale): 0
soybean; [2]
  Soybean plant response rating: 0
soybean; [3]
  Soybean plant response rating: 0
soybean; [4]
  Soybean plant response rating: 0
soybean; [5]
  Soybean plant response rating: 0
soybean; Rate 250 g/ha, Postemergence
  Plant response rating (0 to 10; 0 is no effect, 10 is complete control), Soybean: 0
soybean; [7]
  Soybean plant response rating: 0
crabgrass; [1]
  Crabgrass plant response rating: 0
crabgrass; [6]
  Crabgrass plant response rating (0 to 10 scale): 0
crabgrass; [2]
  Crabgrass plant response rating: 0
crabgrass; [3]
  Crabgrass plant response rating: 3
crabgrass; [4]
  Crabgrass plant response rating: 0
crabgrass; [5]
  Crabgrass plant response rating: 0
crabgrass; Rate 250 g/ha, Postemergence
  Plant response rating (0 to 10; 0 is no effect, 10 is complete control), Crabgrass: 0
crabgrass; [7]
  Crabgrass plant response rating: 0
Wild oat; [1]
  Wild oats plant response rating: 0
Wild oat; [2]
  Wild oats plant response rating: 3
Wild oat; [3]
  Wild oats plant response rating: 3
Wild oat; [4]
  Wild oats plant response rating: 0
Wild oat; [5]
  Wild oats plant response rating: 0
Wild oat; Rate 250 g/ha, Postemergence
  Plant response rating (0 to 10; 0 is no effect, 10 is complete control), Wild oats: 0
rice; [8]
  Rice plant response rating: 0
rice; [9]
  Rice plant response rating: 0
rice; [10]
  Rice plant response rating: 0
rice; [11]
  Plant response rating, Rice: 0
Surinam grass; [1]
  B. signalgrass plant response rating: 3
Surinam grass; [2]
  B. signalgrass plant response rating: 3
Surinam grass; [3]
  B. signalgrass plant response rating: 6
Surinam grass; [4]
  B. signalgrass plant response rating: 0
Surinam grass; Rate 125 g/ha, Postemergence, scale 0 (no effect) to 10 (complete control)
  B. signalgrass plant response rating: 0
Surinam grass; Rate 250 g/ha, Postemergence, scale 0 to 10, 0 is no effect, 10 is complete control
  Plant response rating, B. signalgrass: 0
Surinam grass; Rate 500 g/ha, Postemergence, scale 0 to 10, 0 no effect, 10 complete control
  B. signalgrass plant response rating: 0
Purple nutsedge; [1]
  Nutsedge plant response rating: 0
Purple nutsedge; [6]
  Nutsedge plant response rating (0 to 10 scale): 0
Purple nutsedge; [2]
  Nutsedge plant response rating: 0
Purple nutsedge; [3]
  Nutsedge plant response rating: 0
Purple nutsedge; [4]
  Nutsedge plant response rating: 0
Purple nutsedge; [5]
  Nutsedge plant response rating: 0
Purple nutsedge; Rate 250 g/ha, Postemergence
  Plant response rating (0 to 10; 0 is no effect, 10 is complete control), Nutsedge: 0
Purple nutsedge; [7]
  Nutsedge plant response rating: 0
corn; [1]
  Corn plant response rating: 0
corn; [6]
  Corn plant response rating (0 to 10 scale): 0
corn; [2]
  Corn plant response rating: 0
corn; [3]
  Corn plant response rating: 0
corn; [4]
  Corn plant response rating: 0
corn; [5]
  Corn plant response rating: 0
corn; Rate 250 g/ha, Postemergence
  Plant response rating (0 to 10; 0 is no effect, 10 is complete control), Corn: 0
corn; [7]
  Corn plant response rating: 0
wheat; [1]
  Wheat plant response rating: 0
wheat; [2]
  Wheat plant response rating: 0
wheat; [3]
  Wheat plant response rating: 2
wheat; [4]
  Wheat plant response rating: 0
wheat; [5]
  Wheat plant response rating: 0
wheat; Rate 250 g/ha, Postemergence
  Plant response rating (0 to 10; 0 is no effect, 10 is complete control), Wheat: 0
bedstraw; [1]
  Bedstraw plant response rating: 0
bedstraw; [6]
  Bedstraw plant response rating (0 to 10 scale): 0
bedstraw; [2]
  Bedstraw plant response rating: 0
bedstraw; [3]
  Bedstraw plant response rating: 0
bedstraw; [4]
  Bedstraw plant response rating: 0
bedstraw; [5]
  Bedstraw plant response rating: 0
bedstraw; Rate 250 g/ha, Postemergence
  Plant response rating (0 to 10; 0 is no effect, 10 is complete control), Bedstraw: 0
bedstraw; [7]
  Bedstraw plant response rating: 0
